Results from US7763615B2, “Ecteinascidin analogs for use as antitumour agents” (priority 2001, dated 2010).
In brackets after ≈: the same amount, converted by molar mass. Read-outs that look alike come from different tables or passages of the source.

Columns and labels:
[1] = physchem; conditions: pH 7.4, aqueous buffer, Solubility Dulbecco's PBS pH 7.4
[2] = tested on: H9c2 (2-1), normal rat cardiac muscle cells; conditions: 24 h
[3] = tested on: DU145; assay: cells; assay type: cell-based; conditions: Homo sapiens
Outline: (§1)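 SRB colorimetric growth assay: 5×10^3 cells/well, 18 h attachment, 48 h continuous compound exposure at 10–10^−8 μg/ml in DMSO/EtOH/PBS. TCA fixation, SRB stain, OD 490 nm; triplicate wells, GI, TGI and LC derived.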

[4] = tested on: A498; assay: cells; assay type: cell-based; conditions: Homo sapiens
Outline: as §1

[5] = tested on: A549; assay: cells; assay type: cell-based; conditions: Homo sapiens, A549, 48 h; for GI50: read-out: GI50; for IC (TGI): read-out: TGI
Outline: as §1

[6] = tested on: MEL-28; assay: cells; assay type: cell-based; conditions: Homo sapiens
Outline: as §1

[7] = tested on: MB231; assay: cells; assay type: cell-based; conditions: Homo sapiens
Outline: as §1

[8] = tested on: HT29; assay: cells; assay type: cell-based; conditions: Homo sapiens, HT-29, 48 h
Outline: as §1

[9] = tested on: SW-620; assay: cells; assay type: cell-based; conditions: Homo sapiens
Outline: as §1

[10] = tested on: MCF; assay: cells; assay type: cell-based; conditions: Homo sapiens
Outline: as §1

[11] = tested on: AML-12, normal mouse liver cells; conditions: 24 h
[12] = target: CYP3A4 (Homo sapiens, UniProt P08684); assay: in vitro; conditions: CYP3A4 (% inhibition)
[13] = tested on: FDC-P1, normal mouse myelogeous stem cells; conditions: 24 h
[14] = tested on: NRK-52E, normal rat kidney cells; conditions: 24 h
[15] = s9, 60 min, 1 μM
[16] = tested on: L8, normal rat skeletal muscle cells; conditions: 24 h
[17] = physchem; conditions: pH 7.4, log D n-Octanol-Dulbecco's PBS pH 7.4
[18] = tested on: IGROV-ET; assay: cells; assay type: cell-based; conditions: Homo sapiens, IGROV-ET, 48 hours exposure, SRB
Outline: as §1

[19] = tested on: LNCAP; assay: cells; assay type: cell-based; conditions: Homo sapiens, 48 hours exposure, SRB
Outline: as §1

[20] = tested on: IGROV; assay: cells; assay type: cell-based; conditions: Homo sapiens, 48 hours exposure, SRB
Outline: as §1

[21] = tested on: PANC-1; assay: cells; assay type: cell-based; conditions: Homo sapiens, PANC-1, 48 hours exposure, SRB
Outline: as §1

[22] = tested on: SK-BR3; assay: cells; assay type: cell-based; conditions: Homo sapiens, SK-BR3, 48 hours exposure, SRB
Outline: as §1

[23] = tested on: LOVO; assay: cells; assay type: cell-based; conditions: Homo sapiens, 48 hours exposure, SRB
Outline: as §1

[24] = tested on: HELA; assay: cells; assay type: cell-based; conditions: HELA, 48 hours exposure, SRB
Outline: as §1

[25] = tested on: LOVO-DOX; assay: cells; assay type: cell-based; conditions: Homo sapiens, LOVO-DOX, 48 hours exposure, SRB
Outline: as §1

[26] = tested on: K562; assay: cells; assay type: cell-based; conditions: Homo sapiens, K562, 48 hours exposure, SRB
Outline: as §1

[27] = tested on: HELA-APL; assay: cells; assay type: cell-based
Outline: as §1

[28] = DU-145, 48 h, DU145, 48 hours exposure, SRB
[29] = SK-MEL-28, 48 h, MEL-28, 48 hours exposure, SRB
[30] = read-out: LC50 (the source's name)

Chain of CYP3A4 (P08684 whole entry): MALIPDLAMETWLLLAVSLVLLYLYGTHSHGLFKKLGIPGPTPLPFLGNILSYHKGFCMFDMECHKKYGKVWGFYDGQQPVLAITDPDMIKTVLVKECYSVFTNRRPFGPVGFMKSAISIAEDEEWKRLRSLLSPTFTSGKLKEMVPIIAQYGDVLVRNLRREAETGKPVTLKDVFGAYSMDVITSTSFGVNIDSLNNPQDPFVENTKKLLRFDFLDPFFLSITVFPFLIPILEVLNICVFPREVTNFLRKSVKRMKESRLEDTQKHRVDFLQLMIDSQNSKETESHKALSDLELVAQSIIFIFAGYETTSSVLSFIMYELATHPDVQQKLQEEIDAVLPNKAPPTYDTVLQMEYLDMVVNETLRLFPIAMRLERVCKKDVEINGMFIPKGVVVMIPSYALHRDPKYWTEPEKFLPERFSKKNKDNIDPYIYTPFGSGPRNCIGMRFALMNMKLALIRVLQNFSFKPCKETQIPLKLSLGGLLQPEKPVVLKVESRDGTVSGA

COc1c(C)cc2c(c1O)[C@@H]1C3[C@@H]4SC[C@]5(NCCc6c5[nH]c5ccc(C)cc65)C(=O)COC[C@@H](c5c6c(c(C)c(OC(C)=O)c54)OCO6)N3[C@@H](O)[C@H](C2)N1C (stereo partly drawn) [Compound 30]
solubility [1]: 2.24 µM (≈ 1.75 µg/mL)
Heart [2]: 5.06E−07
GI50 [3, 28]: 0.013 nM
IC (TGI) [3, 28]: 0.039 nM
CC50 ([3]; DU-145, 48 h, read-out: LC50, DU145, 48 hours exposure, SRB): 0.13 nM
CC50 ([4]; A498, 48 h, read-out: LC50): 2.6 nM
GI50 ([4]; A498, 48 hours exposure, SRB): 0.13 nM
IC (TGI) ([4]; A498, 48 hours exposure, SRB): 0.52 nM
GI50 ([5]; A549, 48 hours exposure, SRB): 0.039 nM
IC (TGI) ([5]; A549, 48 hours exposure, SRB): 0.26 nM
CC50 ([5]; read-out: LC50, A549, 48 hours exposure, SRB): 1.04 nM
GI50 [6, 29]: 0.026 nM
IC (TGI) [6, 29]: 0.13 nM
CC50 ([6]; SK-MEL-28, 48 h, read-out: LC50, MEL-28, 48 hours exposure, SRB): 0.65 nM
CC50 ([7]; 48 h, read-out: LC50): 3.9 nM
GI50 ([7]; MB231, 48 hours exposure, SRB): 0.0026 nM
IC (TGI) ([7]; MB231, 48 hours exposure, SRB, read-out: TGI): 0.13 nM
GI50 ([8]; HT29, 48 hours exposure, SRB): 0.104 nM
IC (TGI) ([8]; HT29, 48 hours exposure, SRB): 0.39 nM
CC50 ([8]; read-out: LC50, HT29, 48 hours exposure, SRB): 1.04 nM
CC50 ([9]; SW-620, 48 h, read-out: LC50): 1.3 nM
IC (TGI) ([9]; SW-620, 48 hours exposure, SRB): 0.39 nM
GI50 ([9]; SW-620, 48 hours exposure, SRB, read-out: GI50): 0.026 nM
CC50 ([10]; 48 h, read-out: LC50): 2.6 nM
GI50 ([10]; MCF, 48 hours exposure, SRB): 0.26 nM
IC (TGI) ([10]; MCF, 48 hours exposure, SRB, read-out: TGI): 0.39 nM
Liver [11]: 2.72E−07
inhibition at 30 min, 10 µM [12]: 25%
Myelo [13]: 7.58E−09
Kidney [14]: 4.19E−09
Human Liver S9 Metabolic Stability (% remaining) [15]: 6 % remaining
Skeletal [16]: 2.51E−08
logD at 60 min [17]: > 4.9

C=COC(=O)Oc1c(C)c2c(c3c1[C@H]1SC[C@]4(NCCC5c6ccccc6NC54)C(=O)OC[C@@H]3N3C1[C@H]1c4c(cc(C)c(OC)c4OC(=O)OC=C)C[C@@H]([C@@H]3C#N)N1C)OCO2 (stereo partly drawn) [Compound 68]
GI50 ([18]; 48 h): 30.8 nM
IC (TGI) ([18]; 48 h): 68.9 nM
CC50 [18, 30]: 206 nM
GI50 [3, 28]: 29.9 nM
IC (TGI) [3, 28]: 86.5 nM
CC50 ([3]; DU-145, DU145, 48 hours exposure, SRB, read-out: LC50 (the source's name)): 10300 nM
GI50 ([19]; LNCaP, 48 h): 11.5 nM
IC (TGI) ([19]; LNCaP, 48 h): 26.6 nM
CC50 ([19]; LNCAP, read-out: LC50 (the source's name)): 61.3 nM
GI50 ([20]; 48 h): 21.7 nM
IC (TGI) ([20]; 48 h): 61.6 nM
CC50 [20, 30]: 1090 nM
GI50 ([21]; PANC-1, 48 h): 48.1 nM
IC (TGI) ([21]; PANC-1, 48 h): 125 nM
CC50 [21, 30]: 11700 nM
GI50 ([22]; SK-BR-3, 48 h): 29 nM
IC (TGI) ([22]; SK-BR-3, 48 h): 60.9 nM
CC50 ([22]; SK-BR-3, read-out: LC50 (the source's name)): 206 nM
GI50 ([23]; LoVo, 48 h): 27.1 nM
IC (TGI) ([23]; LoVo, 48 h): 49.7 nM
CC50 ([23]; LOVO, read-out: LC50 (the source's name)): 91.3 nM
GI50 ([5]; A549, 48 hours exposure, SRB): 28.3 nM
CC50 ([5]; A549, 48 hours exposure, SRB, read-out: LC50 (the source's name)): 101 nM
IC (TGI) ([5]; A549, 48 hours exposure, SRB): 49.5 nM
GI50 [6, 29]: 7.52 nM
IC (TGI) [6, 29]: 22.4 nM
CC50 ([6]; SK-MEL-28, MEL-28, 48 hours exposure, SRB, read-out: LC50 (the source's name)): 67.2 nM
TGI [24]: 6.03E−08 Molar
GI50 ([24]; Homo sapiens): 32.5 nM
CC50 ([24]; Homo sapiens, read-out: LC50 (the source's name)): 112 nM
GI50 ([8]; HT29, 48 hours exposure, SRB): 317 nM
IC (TGI) ([8]; HT29, 48 hours exposure, SRB): 95.9 nM
CC50 ([8]; HT29, 48 hours exposure, SRB, read-out: LC50 (the source's name)): 11700 nM
GI50 ([25]; 48 h): 112 nM
IC (TGI) ([25]; 48 h): 743 nM
CC50 [25, 30]: 11700 nM
GI50 ([26]; K562, 48 h): 20.4 nM
IC (TGI) ([26]; K562, 48 h): 44.7 nM
CC50 [26, 30]: 97.5 nM
TGI ([27]; HELA-APL, 48 hours exposure, SRB): 6.19E−08 Molar
GI50 ([27]; Homo sapiens, 48 h): 37 nM
CC50 ([27]; Homo sapiens, HELA-APL, 48 hours exposure, SRB, read-out: LC50 (the source's name)): 103 nM
